From patent US20240018154A1, “NEW INDAZOLE DERIVATIVES” (Hoffmann-La Roche Inc., priority 2020, published 2024)
Where a name gives a salt, the structure may show the parent alone.

biological target: T1, EGFR LRCS (BaF3-LRCS cell line) (Homo sapiens, UniProt P00533, C797S/L858R); assay: HTRF Phospho EGFR LRCS assay (cellular); type: cell-based; conditions: BaF3-LRCS cells, 4 hours incubation with compound, Phospho-EGFR HTRF readout
T1 construct: host or cells: BaF3 (BaF3-LRCS engineered line, kept under puromycin)
T1 sequence (P00533 25-1210 C797S/L858R): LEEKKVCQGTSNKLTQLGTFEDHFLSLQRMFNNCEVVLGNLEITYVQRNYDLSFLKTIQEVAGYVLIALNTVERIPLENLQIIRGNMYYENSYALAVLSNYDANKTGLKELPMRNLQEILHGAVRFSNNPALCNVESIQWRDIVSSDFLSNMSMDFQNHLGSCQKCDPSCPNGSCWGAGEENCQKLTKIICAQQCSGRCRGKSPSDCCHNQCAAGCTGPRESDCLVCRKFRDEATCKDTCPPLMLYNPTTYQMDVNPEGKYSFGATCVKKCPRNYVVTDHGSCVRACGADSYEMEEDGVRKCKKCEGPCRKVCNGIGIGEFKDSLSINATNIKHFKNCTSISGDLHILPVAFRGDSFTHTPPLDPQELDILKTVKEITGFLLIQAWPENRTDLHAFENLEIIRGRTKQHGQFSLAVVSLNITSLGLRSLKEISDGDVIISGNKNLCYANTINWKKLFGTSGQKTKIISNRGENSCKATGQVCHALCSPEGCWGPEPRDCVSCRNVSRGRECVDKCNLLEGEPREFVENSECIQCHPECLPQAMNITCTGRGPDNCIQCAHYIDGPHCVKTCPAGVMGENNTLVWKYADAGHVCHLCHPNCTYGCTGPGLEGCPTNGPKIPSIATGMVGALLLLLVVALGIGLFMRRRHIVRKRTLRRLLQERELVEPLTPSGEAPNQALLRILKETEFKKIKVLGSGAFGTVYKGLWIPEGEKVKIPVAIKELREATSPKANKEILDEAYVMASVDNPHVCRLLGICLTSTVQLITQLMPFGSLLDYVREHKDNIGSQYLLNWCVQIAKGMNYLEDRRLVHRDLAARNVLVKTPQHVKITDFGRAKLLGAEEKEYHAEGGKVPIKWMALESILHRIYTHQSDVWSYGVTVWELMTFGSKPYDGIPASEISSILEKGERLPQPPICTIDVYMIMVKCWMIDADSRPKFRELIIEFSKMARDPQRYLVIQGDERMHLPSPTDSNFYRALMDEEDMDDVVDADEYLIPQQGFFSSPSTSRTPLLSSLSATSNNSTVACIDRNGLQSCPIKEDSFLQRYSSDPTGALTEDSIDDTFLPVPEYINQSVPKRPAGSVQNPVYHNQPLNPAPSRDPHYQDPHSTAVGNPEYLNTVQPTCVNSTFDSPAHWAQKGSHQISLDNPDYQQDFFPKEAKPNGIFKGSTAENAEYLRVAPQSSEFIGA
Experimental: HTRF Phospho EGFR LRCS Assay (Cellular)
BaF3-LRCS cell line were obtained from Crownbio (San Diego, CA, USA). Cells were maintained at 37° C., 5% CO2 in RPMI ATCC (Gibco 31870)+2 mM Glutamine+0.5 μg/ml Puromycin supplemented with 10% fetal bovine serum (FBS) (Gibco).
Cells are transferred as above to Greiner Bio-One, Nr. 784-08 micro-titerplate at 20000 cells/well in 12.5 μl of growth medium/well after the plates had been pre-filled with 12.5 nl of DMSO solutions of the to be tested compounds (in dose response) or DMSO only. After spinning the plates at 300×g for 30 seconds the cells were incubated for 4 hours at 37 C, 5% CO2, 95% humidity. The cells were lysed by adding to the compound mix 4 μl/well of the supplemented lysis buffer (Cis-bio, Phospho-EGFR HTRF kit, 64EG1PEH), followed by incubation for 30 min at room temperature with shaking (400 rpm). The plates were then frozen and stored overnight at −80° C. On the next day and after thawing the plates, 4 μl of a mixture of anti-Phospho-EGFR Cryptate and of anti-Phospho-EGFR-d2 antibody solutions prepared in the supplied detection buffer was added to each well. The lidded plates were then incubated for 4 h at room temperature before reading the fluorescence emission at 616 and 665 nm using an Envision reader (Perkin Elmer). Data was analyzed in similar fashion as above using the normalized ratio of the 665 to 616 signals multiplied by 10000.

Point of comparison: `CCN1CC[C@@H](c2ccc(-c3cc(C(F)F)c4cn(C(C(=O)Nc5nccs5)c5ncn6c5C[C@@H](F)C6)nc4c3C)cc2)[C@H](F)C1` (single isomer, unassigned) [Example 2, 2-[4-(Difluoromethyl)-6-[4-[(3S,4S)-1-ethyl-3-fluoro-4-piperidyl]phenyl]-7-methyl-indazol-2-yl]-2-[(6R)-6-fluoro-6,7-dihydro-5H-pyrrolo[1,2-c]imidazol-1-yl]-N-thiazol-2-yl-acetamide or 2-[4-(Difluoromethyl)-6-[4-[(3R,4R)-1-ethyl-3-fluoro-4-piperidyl]phenyl]-7-methyl-indazol-2-yl]-2-[(6R)-6-fluoro-6,7-dihydro-5H-pyrrolo[1,2-c]imidazol-1-yl]-N-thiazol-2-yl-acetamide], IC50 15 nM. Against it:
- Cc1c(-c2ccc(N3CCC(C)(O)CC3)cc2)cc(C(F)F)c2cn(C(C(=O)Nc3nccs3)c3ncn4c3C[C@@H](F)C4)nc12 (stereo partly drawn) [Example 24, 2-[4-(Difluoromethyl)-6-[4-(4-hydroxy-4-methyl-1-piperidyl)phenyl]-7-methyl-indazol-2-yl]-2-[(6R)-6-fluoro-6,7-dihydro-5H-pyrrolo[1,2-c]imidazol-1-yl]-N-thiazol-2-yl-acetamide] — 1.7-fold higher, 25 nM
- Cc1c(-c2ccc(N3CCOCC3)nc2)cc(C(F)F)c2cn(C(C(=O)Nc3nccs3)c3ncn4c3C[C@@H](F)C4)nc12 (stereo partly drawn) [Example 21, 2-[4-(Difluoromethyl)-7-methyl-6-(6-morpholino-3-pyridyl)indazol-2-yl]-2-[(6R)-6-fluoro-6,7-dihydro-5H-pyrrolo[1,2-c]imidazol-1-yl]-N-thiazol-2-yl-acetamide] — within 1.5-fold, 12 nM
- Cc1c(-c2ccc(OCCN3CCC(CO)CC3)cc2)cc(C(F)F)c2cn(C(C(=O)Nc3nccs3)c3ncn4c3C[C@@H](F)C4)nc12 (stereo partly drawn) [Example 5, 2-[4-(Difluoromethyl)-6-[4-[2-[4-(hydroxymethyl)-1-piperidyl]ethoxy]phenyl]-7-methyl-indazol-2-yl]-2-[(6R)-6-fluoro-6,7-dihydro-5H-pyrrolo[1,2-c]imidazol-1-yl]-N-thiazol-2-yl-acetamide] — within 1.5-fold, 19 nM
- Cc1c(-c2ccc(C3CCN(CC(C)F)CC3)cc2)cc(C(F)F)c2cn(C(C(=O)Nc3nccs3)c3ncn4c3C[C@@H](F)C4)nc12 (stereo partly drawn) [Example 23, 2-[4-(Difluoromethyl)-6-[4-[1-(2-fluoropropyl)-4-piperidyl]phenyl]-7-methyl-indazol-2-yl]-2-[(6R)-6-fluoro-6,7-dihydro-5H-pyrrolo[1,2-c]imidazol-1-yl]-N-thiazol-2-yl-acetamide] — within 1.5-fold, 21 nM
- Cc1c(-c2ccc(CN3CCC(C(C)O)CC3)cc2)cc(C(F)F)c2cn(C(C(=O)Nc3nccs3)c3ncn4c3C[C@@H](F)C4)nc12 (stereo partly drawn) [Example 12, 2-[4-(Difluoromethyl)-6-[4-[[4-(1-hydroxyethyl)-1-piperidyl]methyl]phenyl]-7-methyl-indazol-2-yl]-2-[(6R)-6-fluoro-6,7-dihydro-5H-pyrrolo[1,2-c]imidazol-1-yl]-N-thiazol-2-yl-acetamide] — within 1.5-fold, 18 nM
- Cc1c(-c2ccc(N3CCOCC3)cc2)cc(C(F)F)c2cn(C(C(=O)Nc3nccs3)c3ncn4c3CCC4)nc12 (stereo not shown) [Example 8, 2-[4-(Difluoromethyl)-7-methyl-6-(4-morpholinophenyl)indazol-2-yl]-2-(6,7-dihydro-5H-pyrrolo[1,2-c]imidazol-1-yl)-N-thiazol-2-yl-acetamide] — within 1.5-fold, 17 nM
- Cc1c(-c2ccc(N3CC(CN4CCC(CO)CC4)C3)cc2)cc(C(F)F)c2cn(C(C(=O)Nc3nccs3)c3ncn4c3C[C@@H](F)C4)nc12 (stereo partly drawn) [Example 19, 2-(4-(Difluoromethyl)-6-(4-(3-((4-(hydroxymethyl)piperidin-1-yl)methyl)azetidin-1-yl)phenyl)-7-methyl-211-indazol-2-yl)-2-((R)-6-fluoro-6,7-dihydro-5H-pyrrolo[1,2-c]imidazol-1-yl)-N-(thiazol-2-yl)acetamide] — within 1.5-fold, 16 nM
- CNCCc1ccc(-c2cc(C(F)F)c3cn(C(C(=O)Nc4nccs4)c4ncn5c4C[C@@H](F)C5)nc3c2C)cc1 (stereo partly drawn) [Example 3, 2-[4-(Difluoromethyl)-7-methyl-6-[4-[2-(methylamino)ethyl]phenyl]indazol-2-yl]-2-[(6R)-6-fluoro-6,7-dihydro-5H-pyrrolo[1,2-c]imidazol-1-yl]-N-thiazol-2-yl-acetamide Hydrochloride] — within 1.5-fold, 18 nM
- Cc1c(-c2ccc(N3CCC(S(C)(=O)=O)CC3)cc2)cc(C(F)F)c2cn(C(C(=O)Nc3nccs3)c3ncn4c3C[C@@H](F)C4)nc12 (stereo partly drawn) [Example 16, 2-[4-(Difluoromethyl)-7-methyl-6-[4-(4-methylsulfonyl-1-piperidyl)phenyl]indazol-2-yl]-2-[(6R)-6-fluoro-6,7-dihydro-5H-pyrrolo[1,2-c]imidazol-1-yl]-N-thiazol-2-yl-acetamide] — within 1.5-fold, 16 nM
- Cc1c(-c2ccc(CCN3CCC(C(C)O)CC3)cc2)cc(C(F)F)c2cn(C(C(=O)Nc3nccs3)c3ncn4c3C[C@@H](F)C4)nc12 (stereo partly drawn) [Example 14, 2-[4-(Difluoromethyl)-6-[4-[2-[4-(1-hydroxyethyl)-1-piperidyl]ethyl]phenyl]-7-methyl-indazol-2-yl]-2-[(6R)-6-fluoro-6,7-dihydro-5H-pyrrolo[1,2-c]imidazol-1-yl]-N-thiazol-2-yl-acetamide] — within 1.5-fold, 16 nM
- Cc1c(-c2ccc(CN3CCC(O)CC3)cc2)cc(C(F)F)c2cn(C(C(=O)Nc3nccs3)c3ncn4c3C[C@@H](F)C4)nc12 (stereo partly drawn) [Example 7, 2-[4-(Difluoromethyl)-6-[4-[(4-hydroxy-1-piperidyl)methyl]phenyl]-7-methyl-indazol-2-yl]-2-[(6R)-6-fluoro-6,7-dihydro-5H-pyrrolo[1,2-c]imidazol-1-yl]-N-thiazol-2-yl-acetamide] — within 1.5-fold, 14 nM
- Cc1c(-c2ccc(N3CCN4CCC3C4)cc2)cc(C(F)F)c2cn(C(C(=O)Nc3nccs3)c3ncn4c3C[C@@H](F)C4)nc12 (stereo partly drawn) [Example 13, 2-[6-[4-(1,4-Diazabicyclo[3.2.1]octan-4-yl)phenyl]-4-(difluoromethyl)-7-methyl-indazol-2-yl]-2-[(6R)-6-fluoro-6,7-dihydro-5H-pyrrolo[1,2-c]imidazol-1-yl]-N-thiazol-2-yl-acetamide] — within 1.5-fold, 17 nM
- Cc1c(-c2ccc(CCN3CCC(O)CC3)cc2)cc(C(F)F)c2cn(C(C(=O)Nc3nccs3)c3ncn4c3C[C@@H](F)C4)nc12 (stereo partly drawn) [Example 27, 2-[4-(Difluoromethyl)-6-[4-[2-(4-hydroxy-1-piperidyl)ethyl]phenyl]-7-methyl-indazol-2-yl]-2-[(6R)-6-fluoro-6,7-dihydro-5H-pyrrolo[1,2-c]imidazol-1-yl]-N-thiazol-2-yl-acetamide] — 1.9-fold higher, 28 nM
- Cc1c(-c2ccc(OCCN3CCC(C(C)O)CC3)cc2)cc(C(F)F)c2cn(C(C(=O)Nc3nccs3)c3ncn4c3C[C@@H](F)C4)nc12 (stereo partly drawn) [Example 22, 2-[4-(Difluoromethyl)-6-[4-[2-[4-(1-hydroxyethyl)-1-piperidyl]ethoxy]phenyl]-7-methyl-indazol-2-yl]-2-[(6R)-6-fluoro-6,7-dihydro-5H-pyrrolo[1,2-c]imidazol-1-yl]-N-thiazol-2-yl-acetamide] — 2-fold higher, 30 nM
- Cc1c(-c2ccc(N3C[C@H]4CN(CC(C)F)C[C@H]4C3)cc2)cc(C(F)F)c2cn(C(C(=O)Nc3nccs3)c3ncn4c3C[C@@H](F)C4)nc12 (stereo partly drawn) [Example 29, 2-[6-[4-[(3aR,6aS)-2-(2-Fluoropropyl)-1,3,3a,4,6,6a-hexahydropyrrolo[3,4-c]pyrrol-5-yl]phenyl]-4-(difluoromethyl)-7-methyl-indazol-2-yl]-2-[(6R)-6-fluoro-6,7-dihydro-5H-pyrrolo[1,2-c]imidazol-1-yl]-N-thiazol-2-yl-acetamide] — 1.9-fold higher, 28 nM
- Cc1c(-c2ccc(C3CC(CN4CCC(CO)CC4)C3)cc2)cc(C(F)F)c2cn(C(C(=O)Nc3nccs3)c3ncn4c3C[C@@H](F)C4)nc12 (stereo partly drawn) [Example 15, 2-[4-(Difluoromethyl)-6-[4-[3-[[4-(hydroxymethyl)-1-piperidyl]methyl]cyclobutyl]phenyl]-7-methyl-indazol-2-yl]-2-[(6R)-6-fluoro-6,7-dihydro-5H-pyrrolo[1,2-c]imidazol-1-yl]-N-thiazol-2-yl-acetamide] — 1.6-fold higher, 24 nM
- Cc1c(-c2ccc(C3CC(CN4CCC(O)CC4)C3)cc2)cc(C(F)F)c2cn(C(C(=O)Nc3nccs3)c3ncn4c3C[C@@H](F)C4)nc12 (stereo partly drawn) [Example 17, 2-[4-(Difluoromethyl)-6-[4-[3-[(4-hydroxy-1-piperidyl)methyl]cyclobutyl]phenyl]-7-methyl-indazol-2-yl]-2-[(6R)-6-fluoro-6,7-dihydro-5H-pyrrolo[1,2-c]imidazol-1-yl]-N-thiazol-2-yl-acetamide] — 2-fold higher, 30 nM
- Cc1c(-c2ccc(OCCN3CCC(O)CC3)cc2)cc(C(F)F)c2cn(C(C(=O)Nc3nccs3)c3ncn4c3C[C@@H](F)C4)nc12 (stereo partly drawn) [Example 10, 2-[4-(Difluoromethyl)-6-[4-[2-(4-hydroxy-1-piperidyl)ethoxy]phenyl]-7-methyl-indazol-2-yl]-2-[(6R)-6-fluoro-6,7-dihydro-5H-pyrrolo[1,2-c]imidazol-1-yl]-N-thiazol-2-yl-acetamide] — within 1.5-fold, 17 nM
